In BindingDB's records for doi:10.1124/jpet.103.054775 (Cornell University, 2003) one finds Ki data, which are given here for seven compounds.

Several values for one entry are separate records, joined by “and”; a condition that tells them apart may be missing. Equal entries are not always repeated. Non-standard residues stand in square brackets, D forms with d. Residues, ends and D or L forms follow the SMILES beside them. Dmt = Cc1cc(O)cc(C)c1C[C@H](N)C(=O)O

Broadly, the Ki is the equilibrium dissociation constant of an inhibitor or competing ligand from its target. A lower Ki goes with higher affinity.

For this test, the target named is Mu-type opioid receptor (Mus musculus, UniProt P42866).
Chain of Mu-type opioid receptor (P42866 whole entry): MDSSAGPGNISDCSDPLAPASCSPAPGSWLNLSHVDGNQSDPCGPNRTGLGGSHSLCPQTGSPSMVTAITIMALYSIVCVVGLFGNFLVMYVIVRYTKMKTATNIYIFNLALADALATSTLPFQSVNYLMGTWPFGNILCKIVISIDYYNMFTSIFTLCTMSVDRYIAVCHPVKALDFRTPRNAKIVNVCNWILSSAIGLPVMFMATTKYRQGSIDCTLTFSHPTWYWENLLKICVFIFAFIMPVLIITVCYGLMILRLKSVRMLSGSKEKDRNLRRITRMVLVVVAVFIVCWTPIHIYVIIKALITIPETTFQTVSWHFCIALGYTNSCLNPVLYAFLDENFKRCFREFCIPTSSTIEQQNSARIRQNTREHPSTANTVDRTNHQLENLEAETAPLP

Regarding `C[C@@H](NC(=O)[C@@H](N)Cc1ccc(O)cc1)C(=O)N[C@@H](Cc1ccccc1)C(=O)N[C@@H](Cc1ccccc1)C(N)=O` (H-Y[dA]FF-NH2), the Ki was 1.53 nM and 3.44 nM.

As for `NCCC[C@H](NC(=O)[C@H](Cc1ccccc1)NC(=O)[C@@H](CCCN=C(N)N)NC(=O)[C@@H](N)Cc1ccc(O)cc1)C(N)=O` [5-amino-2-{1-[1-[1-amino-2-(4-hydroxyphenyl)ethylcarboxamido]-4-amino(imino)methylamino-(1R)-butylcarboxamido]-2-phenylethylcarboxamido}pentanamide], the Ki is 1.2 nM and 10.4 nM. Under `Cc1cc(O)cc(C)c1C[C@H](N)C(=O)N[C@H](C)C(=O)N[C@@H](Cc1ccccc1)C(=O)N[C@@H](Cc1ccccc1)C(N)=O` [Dmt-d-Ala-Phe-Phe-NH2] (H-[Dmt][dA]FF-NH2) stands 0.173 nM and 0.174 nM.

Regarding `Cc1cc(O)cc(C)c1C[C@H](N)C(=O)N[C@H](CCCN=C(N)N)C(=O)N[C@@H](Cc1ccccc1)C(=O)N[C@@H](CN)C(N)=O` [Dmt-d-Arg-Phe-A2pr-NH2], the Ki is 0.0636 nM and 0.145 nM.

With `Cc1cc(O)cc(C)c1C[C@H](N)C(=O)N[C@H](CCCN=C(N)N)C(=O)N[C@@H](Cc1ccccc1)C(=O)N[C@@H](CCCN)C(N)=O` [Dmt-d-Arg-Phe-Orn-NH2], the Ki is 0.151 nM and 0.161 nM. With `NCCCC[C@H](NC(=O)[C@H](Cc1ccccc1)NC(=O)[C@@H](CCCN=C(N)N)NC(=O)[C@@H](N)Cc1ccc(O)cc1)C(N)=O` [NSC_122222], the Ki is 1.69 nM and 12.9 nM. Regarding `NC[C@H](NC(=O)[C@H](Cc1ccccc1)NC(=O)[C@@H](CCCN=C(N)N)NC(=O)[C@@H](N)Cc1ccc(O)cc1)C(N)=O` [Tyr-d-Arg-Phe-A2pr-NH2], the Ki was 2.55 nM and 12.7 nM.
